Measured values: patent US8222246B2, “Substituted isoxazoles” (Hoffmann-La Roche Inc., priority 2009, dated 2012)

The compounds below were run against T1, GABA A α5 (α5β3γ2) (Homo sapiens, UniProt P18507+P31644) (assay: [3H]flumazenil competition binding assay, human GABA A α5 receptors in HEK293 cells). Settings: competition for [3H]flumazenil (0.5 nM); HEK293 cells expressing human (transiently transfected) receptors; means of two determinations; read-out: hKi GABA A α5.
T1 construct: expressed in transfected cells; host or cells: HEK293 (transiently transfected), membranes
Experimental: Membrane Preparation and Binding Assay
The affinity of compounds at GABA A receptor subtypes was measured by competition for [3H]flumazenil (85 Ci/mmol; Roche) binding to HEK293 cells expressing rat (stably transfected) or human (transiently transfected) receptors of composition α1β3γ2, α2β3γ2, α3β3γ2 and α5β3γ2.
Cell pellets were suspended in Krebs-tris buffer (4.8 mM KCl, 1.2 mM CaCl2, 1.2 mM MgCl2, 120 mM NaCl, 15 mM Tris; pH 7.5; binding assay buffer), homogenized by polytron for ca. 20 sec on ice and centrifuged for 60 min at 4° C. (50000 g; Sorvall, rotor: SM24=20000 rpm). The cell pellets were resuspended in Krebs-tris buffer and homogenized by polytron for ca. 15 sec on ice. Protein was measured (Bradford method, Bio-Rad) and aliquots of 1 mL were prepared and stored at −80° C.
Radioligand binding assays were carried out in a volume of […] (96-well plates) which contained […] of cell membranes, [3H]flumazenil at a concentration of 1 nM for α1, α2, α3 subunits and 0.5 nM for α5 subunits and the test compound in the range of […]. Nonspecific binding was defined by 10^−5 M diazepam and typically represented less than 5% of the total binding. Assays were incubated to equilibrium for 1 hour at 4° C. and harvested onto GF/C uni-filters (Packard) by filtration using a Packard harvester and washing with ice-cold wash buffer (50 mM Tris; pH 7.5). After drying, filter-retained radioactivity was detected by liquid scintillation counting. Ki values were calculated using Excel-Fit (Microsoft) and are the means of two determinations.
Representative test results, obtained by the above described assay measuring binding affinity to HEK293 cells expressing human (h) receptors, are shown in table 1 below.

Ki	Compound
3.4 nM	O=C(NCC(F)(F)C(F)(F)F)c1ccc(OCc2c(-c3ccc(F)cc3)noc2CO)nc1 [Example 13, 6-[3-(4-Fluoro-phenyl)-5-hydroxymethyl-isoxazol-4-ylmethoxy]-N-(2,2,3,3,3-pentafluoro-propyl)-nicotinamide]
4.4 nM	CC[C@H](CO)NC(=O)c1ccc(OCc2c(-c3ccc(F)c(F)c3)noc2CO)nc1 [Example 37, 6-[3-(3,4-Difluoro-phenyl)-5-hydroxymethyl-isoxazol-4-ylmethoxy]-N-([R]-1-hydroxymethyl-propyl)-nicotinamide]
0.6 nM	O=C(N[C@H]1CCC[C@@H]1O)c1ccc(OCc2c(-c3ccc(Cl)cc3)noc2CO)nc1 (single isomer, unassigned) [Example 27, 6-[3-(4-Chloro-phenyl)-5-hydroxymethyl-isoxazol-4-ylmethoxy]-N-([1R,2R]-2-hydroxy-cyclopentyl)-nicotinamide or 6-[3-(4-Chloro-phenyl)-5-hydroxymethyl-isoxazol-4-ylmethoxy]-N-([1S,2S]-2-hydroxy-cyclopentyl)-nicotinamide]
2.1 nM	Cn1cc(NC(=O)c2ccc(OCc3c(-c4ccc(F)c(F)c4)noc3CO)nc2)cn1 [Example 39, 6-[3-(3,4-Difluoro-phenyl)-5-hydroxymethyl-isoxazol-4-ylmethoxy]-N-(1-methyl-1H-pyrazol-4-yl)-nicotinamide]
16 nM	CCCCc1noc(CO)c1COc1ccc(C(=O)NC(C)C)cn1 [Example 49, 6-(3-Butyl-5-hydroxymethyl-isoxazol-4-ylmethoxy)-N-isopropyl-nicotinamide]
13.7 nM	CCCCc1noc(CO)c1COc1ccc(C(=O)NC2CCC2)cn1 [Example 52, 6-(3-Butyl-5-hydroxymethyl-isoxazol-4-ylmethoxy)-N-cyclobutyl-nicotinamide]
1.7 nM	O=C(NCC1CC1)c1ccc(OCc2c(-c3ccc(F)cc3)noc2CO)nc1 [Example 6, N-Cyclopropylmethyl-6-[3-(4-fluoro-phenyl)-5-hydroxymethyl-isoxazol-4-ylmethoxy]-nicotinamide]
3.9 nM	CC(C)(CO)NC(=O)c1ccc(OCc2c(-c3ccc(Cl)cc3)noc2CO)nc1 [Example 23, 6-[3-(4-Chloro-phenyl)-5-hydroxymethyl-isoxazol-4-ylmethoxy]-N-(2-hydroxy-1,1-dimethyl-ethyl)-nicotinamide]
1.1 nM	O=C(NC1CCOCC1)c1ccc(OCc2c(-c3ccccn3)noc2CO)nc1 [Example 47, 6-(5-Hydroxymethyl-3-pyridin-2-yl-isoxazol-4-ylmethoxy)-N-(tetrahydropyran-4-yl)-nicotinamide]
1.7 nM	O=C(NC1CC1)c1ccc(OCc2c(-c3ccc(F)cc3)noc2CO)nc1 [Example 8, N-Cyclopropyl-6-[3-(4-fluoro-phenyl)-5-hydroxymethyl-isoxazol-4-ylmethoxy]-nicotinamide]
